Test results published in patent US20150105252A1, “SUBSTITUTED PYRAZOLES AS HERBICIDES” (E I DU PONT DE NEMOURS AND COMPANY, priority 2013, published 2015).

Tests used:
barnyardgrass [1] = assay: Test A preemergence; format: in vivo, Echinochloa crus-galli; conditions: preemergence; for Barnyardgrass plant response rating (0 to 100 scale, 0 is no effect, 100 is complete control): 125 g ai/ha, visual injury approx. 10 days after treatment; for Barnyardgrass plant response rating: 500 g ai/ha, visual injury after approx. 10 days, 0 to 100 scale (0 no effect, 100 complete control)
Procedure, shortened: (§1)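 Growth medium: loam soil blended with sand. Preemergence treatment used a directed soil spray right after planting; postemergence treatment targeted seedlings at one to two leaves (2–10 cm height). Response was judged by eye relative to untreated plants about 10 days later on a 0–100 control scale.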

kochia [2] = assay: Test A preemergence; format: in vivo, Kochia scoparia; conditions: 125 g ai/ha, visual injury approx. 10 days after treatment
Text: (§2) Seeds of plant species selected from barnyardgrass (Echinochloa crus-galli), kochia (Kochia scoparia), common ragweed (Ambrosia elation), Italian ryegrass (Lolium multiflorum), crabgrass, large (large crabgrass, Digitaria sanguinalis), foxtail, giant (giant foxtail, Setaria faberii), morningglory (Ipomoea spp.), pigweed (redroot pigweed, Amaranthus retroflexus), velvetleaf (Abutilon theophrasti), wheat (Triticum aestivum), and corn (Zea mays) were planted into a blend of loam soil and sand and treated preemergence with a directed soil spray using test chemicals formulated in a non-phytotoxic solvent mixture which included a surfactant.
(§3) At the same time, plants selected from these crop and weed species and also blackgrass (Alopecurus myosuroides), and galium (catchweed bedstraw, Galium aparine) were planted in pots containing the same blend of loam soil and sand and treated with postemergence applications of test chemicals formulated in the same manner. Plants ranged in height from 2 to 10 cm and were in the one- to two-leaf stage for the postemergence treatment. Treated plants and untreated controls were maintained in a greenhouse for approximately 10 days, after which time all treated plants were compared to untreated controls and visually evaluated for injury. Plant response ratings, summarized in Table A, are based on a 0 to 100 scale where 0 is no effect and 100 is complete control. A dash (-) response means no test result.

common ragweed [3] = assay: Test A preemergence; format: in vivo, Ambrosia elation; conditions: for Common Ragweed plant response rating (0 to 100 scale): 125 g ai/ha, visual injury approx. 10 days after treatment; for Common Ragweed plant response rating: 500 g ai/ha, visual injury after approx. 10 days, 0 to 100 scale (0 no effect, 100 complete control)
Text: as §2, §3

Italian ryegrass [4] = assay: Test A preemergence; format: in vivo, Lolium multiflorum; conditions: for Italian Ryegrass plant response rating (0 to 100 scale): 125 g ai/ha, visual injury approx. 10 days after treatment; for Italian Ryegrass plant response rating: 500 g ai/ha, visual injury after approx. 10 days, 0 to 100 scale (0 no effect, 100 complete control)
Text: as §2, §3

foxtail, giant [5] = assay: Test A preemergence; format: in vivo, Setaria faberii; conditions: preemergence; for Foxtail, Giant plant response rating (0 to 100 scale): 125 g ai/ha, visual injury approx. 10 days after treatment; for Foxtail, Giant plant response rating: 500 g ai/ha, visual injury after approx. 10 days, 0 to 100 scale (0 no effect, 100 complete control)
Procedure, shortened: as §1

pigweed [6] = assay: Test A preemergence; format: in vivo, Amaranthus retroflexus; conditions: preemergence, 125 g ai/ha, visual injury approx. 10 days after treatment
Procedure, shortened: as §1

barnyardgrass [7] = assay: Test A postemergence; format: in vivo, Echinochloa crus-galli
Procedure, shortened: as §1

kochia [8] = assay: Test A postemergence; format: in vivo, Kochia scoparia; conditions: Postemergence
Text: as §2, §3

common ragweed [9] = assay: Test A postemergence; format: in vivo, Ambrosia elation
Text: as §2, §3

Italian ryegrass [10] = assay: Test A postemergence; format: in vivo, Lolium multiflorum; conditions: Postemergence
Text: as §2, §3

foxtail, giant [11] = assay: Test A postemergence; format: in vivo, Setaria faberii
Procedure, shortened: as §1

pigweed [12] = assay: Test A postemergence; format: in vivo, Amaranthus retroflexus; conditions: Postemergence
Procedure, shortened: as §1

wheat = assay: Test A postemergence; format: in vivo, Triticum aestivum; conditions: Postemergence
Procedure, shortened: as §1

corn = assay: Test A postemergence; format: in vivo, Zea mays
Procedure, shortened: as §1

blackgrass = assay: Test A postemergence; format: in vivo, Alopecurus myosuroides
Text: as §2, §3

galium = assay: Test A postemergence; format: in vivo, Galium aparine; conditions: Postemergence
Text: as §2, §3

rice = assay: Test B flood; format: in vivo, Oryza sativa; conditions: 250 g ai/ha, visual rating on 0 to 100 scale (0 no effect, 100 complete control), 13 to 15 days
Procedure, shortened: (§4)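 Two-leaf-stage plants, pots flooded (3 cm above soil) and treated through the water, which stayed at that depth. After 13–15 days in greenhouse conditions, visual assessment versus controls: 0 is no effect, 100 complete control, dash means no result.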

sedge, umbrella = assay: Test B flood; format: in vivo, Cyperus difformis; conditions: 250 g ai/ha, visual rating on 0 to 100 scale (0 no effect, 100 complete control), 13 to 15 days
Procedure, shortened: as §4

ducksalad = assay: Test B flood; format: in vivo, Heteranthera limosa; conditions: 250 g ai/ha, visual rating on 0 to 100 scale (0 no effect, 100 complete control), 13 to 15 days
Procedure, shortened: as §4

barnyardgrass [13] = assay: Test B flood; format: in vivo, Echinochloa crus-galli; conditions: 250 g ai/ha, visual rating on 0 to 100 scale (0 no effect, 100 complete control), 13 to 15 days
Procedure, shortened: as §4

[14] = Postemergence, 125 g ai/ha, 0 to 100 scale, 0 no effect, 100 complete control
[15] = Postemergence, 500 g ai/ha, 0 to 100 scale (0 no effect, 100 complete control)
[16] = 125 g ai/ha, 0 to 100 scale, 0 no effect, 100 complete control
[17] = 500 g ai/ha, 0 to 100 scale (0 no effect, 100 complete control)
[18] = postemergence, 125 g ai/ha, about 10 days, visual rating on 0 to 100 scale (0 no effect, 100 complete control)

| SMILES | Barnyardgrass plant response rating (0 to 100 scale, 0 is no effect, 100 is complete control) (barnyardgrass [1]) | Barnyardgrass plant response rating (barnyardgrass [1]) | Kochia plant response rating (0 to 100 scale) (kochia [2]) | Common Ragweed plant response rating (0 to 100 scale) (common ragweed [3]) | Common Ragweed plant response rating (common ragweed [3]) | Italian Ryegrass plant response rating (0 to 100 scale) (Italian ryegrass [4]) | Italian Ryegrass plant response rating (Italian ryegrass [4]) | Foxtail, Giant plant response rating (0 to 100 scale) (foxtail, giant [5]) | Foxtail, Giant plant response rating (foxtail, giant [5]) | Pigweed plant response rating (0 to 100 scale) (pigweed [6]) | Barnyardgrass plant response rating (barnyardgrass [7]; [15]) | Kochia plant response rating (kochia [8]; [16]) | Kochia plant response rating (kochia [8]; [17]) | Common Ragweed plant response rating (common ragweed [9]; [15]) | Italian Ryegrass plant response rating (Italian ryegrass [10]; [16]) | Italian Ryegrass plant response rating (Italian ryegrass [10]; [17]) | Foxtail, Giant plant response rating (foxtail, giant [11]; [15]) | Pigweed plant response rating (pigweed [12]; [16]) | Pigweed plant response rating (pigweed [12]; [17]) | Wheat plant response rating (wheat; [16]) | other results |
| --- | --- | --- | --- | --- | --- | --- | --- | --- | --- | --- | --- | --- | --- | --- | --- | --- | --- | --- | --- | --- | --- |
| CCc1cc(C(=O)NCC(F)(F)F)nn1Cc1cc(C(F)(F)F)nn1C(C)C [Compound 213] | 0 | 0 | 0 | 0 | 0 | 0 | 0 | 0 | 0 | 0 | 0 | 0 | 0 | 0 | 0 | 0 | 0 | 0 | 0 | 0 | Barnyardgrass plant response rating (barnyardgrass [7]; [14]): 0; Common Ragweed plant response rating (common ragweed [9]; [14]): 0; Foxtail, Giant plant response rating (foxtail, giant [11]; [14]): 0; Wheat plant response rating (wheat; [17]): 0; Corn plant response rating (corn; [14]): 0; Corn plant response rating (corn; [15]): 0; Blackgrass plant response rating (blackgrass; [14]): 0; Blackgrass plant response rating (blackgrass; [15]): 0; Galium plant response rating (galium; [16]): 0; Galium plant response rating (galium; [17]): 0; Plant response rating, Rice (rice): 0; Plant response rating, Sedge, Umbrella (sedge, umbrella): 0; Plant response rating, Ducksalad (ducksalad): 0; Plant response rating, Barnyardgrass (barnyardgrass [13]): 0 |
| CCONC(=O)c1cc(CC)n(Cc2cc(OC(F)F)nn2C)n1 [Compound 207] | 0 | 90 | 30 | 0 | 40 | 0 | 20 | 0 | 20 | 50 | 80 | 30 | 60 | 30 | 0 | 50 | 60 | 60 | 100 | 10 | Barnyardgrass plant response rating (barnyardgrass [7]; [18]): 0; Common Ragweed plant response rating (common ragweed [9]; [18]): 0; Foxtail, Giant plant response rating (foxtail, giant [11]; [18]): 0; Wheat plant response rating (wheat; [17]): 20; Corn plant response rating (corn; [15]): 60; Corn plant response rating (corn; [18]): 30; Blackgrass plant response rating (blackgrass; [15]): 60; Blackgrass plant response rating (blackgrass; [18]): 0; Galium plant response rating (galium; [16]): 40; Galium plant response rating (galium; [17]): 80; Plant response rating, Rice (rice): 0; Plant response rating, Sedge, Umbrella (sedge, umbrella): 0; Plant response rating, Ducksalad (ducksalad): 0; Plant response rating, Barnyardgrass (barnyardgrass [13]): 0 |
| CCc1cc(C(=O)NC2CC2)nn1Cc1cc(OC(F)F)nn1C [Compound 211] | 0 | 70 | 50 | 0 | 40 | 0 | 20 | 0 | 80 | 50 | 50 | 80 | 90 | 20 | 0 | 30 | 60 | 70 | 100 | 0 | Barnyardgrass plant response rating (barnyardgrass [7]; [14]): 0; Common Ragweed plant response rating (common ragweed [9]; [14]): 0; Foxtail, Giant plant response rating (foxtail, giant [11]; [14]): 0; Wheat plant response rating (wheat; [17]): 20; Corn plant response rating (corn; [14]): 30; Corn plant response rating (corn; [15]): 40; Blackgrass plant response rating (blackgrass; [14]): 0; Blackgrass plant response rating (blackgrass; [15]): 50; Galium plant response rating (galium; [16]): 20; Galium plant response rating (galium; [17]): 70; Plant response rating, Rice (rice): 0; Plant response rating, Sedge, Umbrella (sedge, umbrella): 0; Plant response rating, Ducksalad (ducksalad): 0; Plant response rating, Barnyardgrass (barnyardgrass [13]): 0 |
